What was measured:
calvarial osteoblasts [1] = experiment: Alkaline phosphatase activity assay in calvarial osteoblasts; type: cell-based, neonatal Sprague-Dawley rats
Method: (§1) Neonatal rat calvarial cell cultures are prepared as described previously (Chattopadhyay et al., Endocrinology 145:3451-62, 2004) using slight modification. Briefly, for calvarial osteoblast cultures, frontal and parietal bones from neonatal Sprague-Dawley rats (1-3 day old) were digested in 0.1% collagenase/0.1% dispase in α-MEM to obtain 5 sequential digests. The second through fifth digests are combined and grown to confluence at 37° C. and 5% CO2 in air in α-MEM, supplemented with 10% fetal bovine serum (FBS), 2 mM glutamine, 100 U/ml penicillin-streptomycin, non-essential amino acid solution and sodium pyruvate.
For alkaline phosphatase (ALP) assay, osteoblasts were plated in 96-well (2000 cells/well) plates in regular growth medium. Twenty-four hours later, when the cells formed a confluent monolayer, medium was replaced with α-MEM medium supplemented with 10% FBS, 10 mM β-glycerophosphate and 50 μg/ml ascorbic acid. Treatment was given with varying concentration of the test compound K012, K058, K068 and K100 at 1 nM and 100 nM concentration. Forty-eight hours after induction, ALP activity of the osteoblasts was determined as described by Akiyama et al (Exp Cell Res 235:362-369, 1997) with slight modifications. Briefly, cells were washed once with PBS and ALP activity was measured by adding ALP buffer (1 M diethanolamine, 0.5 mM MgCl2, 1 mg/ml PNPP, pH 9.0), incubating in 37° C., and absorbance (405 nm) was measured using a microplate spectrophotometer. Statistical significance was determined by paired two-tailed Student's t-tests.

calvarial osteoblasts [2] = experiment: In vitro mineralization of calvarial osteoblasts (alizarin red-S, von kossa); type: cell-based, neonatal Sprague-Dawley rats; conditions: for Von kossa staining (mineralized nodules) compared with controls (vehicle): 21 days culture
Method: as §1
Ability of cells to produce mineralized matrix is important with regard to development of materials for bone regeneration. Mineralization of extracellular matrix by osteoblasts was determined using alizarin red-S (AR-S) assay combined with cetylpyridinium chloride (CPC) extraction. (Stanford et al, J. Biol. Chem. 270:9420-9428; 1995.) Alizarin red is a dye that binds selectively to nascent calcium salts and is widely used for calcium mineral histochemistry. Cells were seeded onto a six well plate containing 10000 cells/well in culture medium supplemented with 10 mM β-glycerophosphate and 50 μg/ml ascorbic acid with test compounds K012, K058, K068 and K0100 at 1 nM and 100 nM concentration. Treatment was given for 21 days and after completion of the treatment samples were rinsed with PBS followed by fixation (4% HCHO for 20 min). Photomicrographs of the stained wells were taken. Subsequently, alizarin red-S stain was extracted using 10% (w/v) cetylpyridinium chloride (CPC) in […] sodium phosphate, pH 7.0, for 15 min at room temperature, and the resulting solutions were read on a Microplate reader with a test wavelength of 540 nm against a reference wavelength of 620 nm. Mineralization nodules were also seen by Von kossa staining procedure (A. M. Chou et al. Materials Science and Engineering C 20 (2002) 77-83.) After 21 days culture, cells in tissue culture wells were washed with PBS and immersed in 5% (w/v) silver nitrate solution for 45 min. After rinsing with distilled water, they were fixed in 5% (w/v) sodium bicarbonate formalin for 8 min. Finally, they were immersed in 5% (w/v) sodium thiosulphate solution for 5 min and washed thoroughly with water for 15 min and photomicrographs were taken.

Bone marrow cells (BMCs) = experiment: In vitro mineralization from mouse bone marrow; type: cell-based, balb/c mice; conditions: 1 nM and 100 nM, 21 days
Description: Adult balb/c mice were used in this study. Bone marrow cells (BMCs) were harvested from the femurs and tibias of the animals, as described elsewhere (Maniatopoulos et al. Cell Tissue Res 1988:254:317-30.; Ishaug et al., J Biomed Mater Res 1997; 36:17-28.). Briefly, bones were aseptically excised from the hind limbs of the mice following ether euthanasia. The soft tissue was removed, and the proximal end of the femur and distal end of the tibia were clipped off using sterile scissors, a hole was created in the knee joint end of each bone with an needle, and the marrow was flushed from the shaft with control medium (CM) which consisted of α-MEM supplemented with 10% fetal calf serum, 100 U/ml penicillin, 100 U/ml streptomycin (Sigma, Chemical Co., St. Louis, Mo., USA). The cells were suspended in this medium, and the cell suspensions from all bones were combined in a centrifuge tube. The suspension was spun down at 800 rpm for 5 min. Cells were counted by using a haemocytometer. The supernatant was aspirated, and the pellet was re-suspended in fresh CM and then seeded into 12-well plates. 200000 cells/well were cultured in 12-well plates and in a humidified atmosphere, with 5% CO2, at 37° C. in the same medium supplemented with 10 mM-β-glycerophosphate, 50 μg/ml L-ascorbic acid and 10^−8M dexamethasone with different concentration of the test compound. This medium was replaced every other day (John et al. Trends. Biomater. Artif. Organs 2002:16(1):28-33.; Connolly. Clin Orthop 1995:313: 8-18.; Gebhart and Lane. Acta Orthop Belg 1991:57(2):130-43.; Gurpinar et al. J Biomater Appl 2003; 18(1):25-33; Lan and Wang, Blood Substitutes. Biotechnol 2003; 31(1):59-68.). Treatments K012, K058, K068 and K0100 at 1 nM and 100 nM concentration were given for 21 days and after completion of the treatment samples were rinsed with PBS followed by fixation (4% HCHO for […]). Samples were then rinsed with nanopure water and stained for 10 min with 40 mM AR-S, pH 4.2, at room temperature. Photomicrographs of the stained wells were taken. Subsequently, alizarin red-S stain was extracted using 10% (w/v) CPC in […] sodium phosphate, pH 7.0, for […] at room temperature, and the resulting solutions were read on a Microplate reader with a test wavelength of 540 nm against a reference wavelength of 620 nm.

3T3-L1 preadipocytes = experiment: Semi-quantitative RT-PCR of adipogenic genes; type: cell-based, murine; conditions: 10^−7 & 10^−9M, 8 d
Method: RT-PCR was performed for assessing the expression of PPAR-γ (peroxisome proliferator-activated receptor) and adiponectin. The house keeping gene GAPDH was used as the internal control in this study. 3T3-L1 preadipocytes were cultured under differentiation condition to form adipocytes in the presence of K068 and K100 at 10^−6, 10^−7 and 10^−9 M concentrations for 8 days. Following the culture, cellular RNA was extracted and RT-PCR performed using a kit (Fermentas) according to manufacturer's instructions.

[3] = test system: 3T3-L1 preadipocyte cells; experiment: In vitro adipogenesis (oil red-O); type: cell-based, murine; conditions: for adipocyte differentiation (oil red-O): 1 μM, 100 nM and 1 nm, 8 days
Method: 3T3-L1 preadipocyte cells were cultured to confluency. Two days after the cells reached confluency was considered as day 0. At day 0, cells were treated with the induction media [10% calf serum/DMEM containing 1 μg/ml insulin, 1 μM dexamethasone and 500 μM isobutylmethylxanthine (IBMX). Two days after induction medium treatment (day 2), the cells were treated with insulin [10% calf serum/DMEM containing 1 μg/ml insulin. Full differentiation was usually achieved after 8 days from day 0. To test the effect of the test compound on the differentiation of 3T3-L1 preadipocytes to adipocytes, the test compounds K068 and K100 at 1 μM, 100 nM and 1 nm concentrations were used in different concentrations throughout differentiation (for 8 days starting from day 0). For assessment of adipogenesis the differentiated cells were fixed in 4% paraformaldehyde w/v for 20 min, washed with PBS and stained with 0.34% Oil Red 0 in 60% isopropanol for 15 minutes. Then it was washed with PBS thrice and stain was extracted with 80% isopropanol by keeping it at room temperature for 30 minutes on an orbital shaker. OD of the extracted dye was taken at 520 nm.

Ishikawa cells = experiment: In vitro estrogenicity / anti-estrogenicity (ALP induction); type: cell-based, human; conditions: 10^−11 to 10^−6 M, 72 h
Method: The expression of alkaline phosphatase is induced in Ishikawa cells in response to estrogen or estrogen like substances (Littlefield et al, Endocrinology. 1990 December; 127(6):2757-62.). Ishikawa cells were plated in 96-well flat bottomed microtiter plates at a density of 5000 cells/well and cultured in phenol red free DMEM containing 10% charcoal treated FCS. After 24 h of plating, cells were serum-starved for 12 h. Thereafter, for testing estrogenicity of compounds, the cells were treated with different concentrations (10^−6 to 10^−11 M) of pure compounds K058 and K012. Same concentrations of Raloxifene were also used for comparison. Estrogen concentration of 10^−8 M was used as a positive control. Compound treatments were performed for 72 h at 37° C. in CO2 incubator. Experiments were repeated 4 times. For the anti-estrogenicity studies, the compounds K012 and K058 at 10^−6 to 10^−11 M were added with 10^−8 M estrogen. After 72 h of incubation, the media was removed and the plates were washed twice with PBS and dried by tapping, gently. Freeze fracture of cells was achieved by placing the plates at −70° C. for 15, min followed by bringing to room temperature. The plates were then placed on ice and 50 μl of ice cold diethanolamine solution (5 mM P-nitrophenyl phosphate (PNP) and 0.25 mM MgCl2 in 1 M diethanolamine) was added to each well. The plates were then placed at 37° C. for 30 minutes for color (yellow) development is a function of ALP activity. Absorbance was measured at 405 nm.

osteoblast differentiation (summary of in vitro effects) (calvarial osteoblasts [1])	Compound	osteoblast mineralization (summary of in vitro effects) (calvarial osteoblasts [2])	Von kossa staining (mineralized nodules) compared with controls (vehicle) (calvarial osteoblasts [2])	mineralization of bone marrow osteoblasts (alizarin red staining) (Bone marrow cells (BMCs))	mRNA levels of PPAR-γ (3T3-L1 preadipocytes)	mRNA levels of adiponectin (3T3-L1 preadipocytes)	anti-adipogenic activity in 3T3 L1 cell line (summary of in vitro effects) [3]	adipocyte differentiation (oil red-O) [3]	ALP levels (estrogenicity) (Ishikawa cells)
promoted	O=C1CC(c2ccc(O)cc2)Oc2cc(O)c(C3O[C@H](CO)[C@@H](O)[C@H](O)[C@H]3O)c(O)c21 (some centres unmarked) [K068, 6-Glucopyranosyl-4′,5,7-trihydroxyflavanone]	promoted	increased	stimulated	decreased	decreased	have anti-adipogenic activity	significantly inhibited	–
promoted	O=C1c2c(cc(O)c([C@@H]3OC(CO)[C@@H](O)[C@H](O)C3O)c2O)O[C@@H](c2ccc(O)cc2)[C@@H]1O (stereo partly drawn) [K100, (2S,3S)-(+)-4′,5,7-trihydroxydihydroflavonol-6-C-β-D-glucopyranoside]	promoted	increased	stimulated	decreased	decreased	have anti-adipogenic activity	significantly inhibited	–
–	O=C(c1ccc(OCCN2CCCCC2)cc1)c1c(-c2ccc(O)cc2)sc2cc(O)ccc12 [raloxifene, reference compound]	–	–	–	–	–	–	–	no response

Source: patent US8669232B2, “Flavonol compounds, a bioactive extract/fraction from Ulmus wallichiana and its compounds for prevention for treatment of osteo-health related disorders” (Council of Scientific & Industrial Research, priority 2008, dated 2014)
